Laboratory results: patent publication US20130065847A1, “ENDOPARASITICIDAL COMPOSITIONS” (priority 2010, published 2013)

Tested on: Cooperia Curticei
Test: In-vivo test on Cooperia curticei on sheep using peroral application
Conditions: Monepantel 0.625 mg/kg, Abamectin 0.05 mg/kg; for Efficacy [%]: 100×(C−T)/C of worm count means vs untreated control, days 14-17; for Efficacy [%] / log [Worm count] [geometric mean value] / Reduction worm count [factor] / Reduction log [worm count]: L4 stage, oral, combination 0.625 & 0.05 mg/kg; for Worm count [Geometric mean value]: experimentally induced infection, treated at L4 stage, single oral application, combination 0.625 & 0.05 mg/kg bodyweight, slaughter days 14-17 after treatment, untreated control 4266; for log [Worm count] [geometric mean value]: log transformed worm counts, untreated control 3.631; for Reduction worm count [factor]: observed; for Reduction worm count [factor] / Reduction log [worm count]: vs untreated control
Description: In-Vivo Test on Cooperia Curticei on Sheep Using Peroral Application
The study concerned a blinded parallel-group efficacy study against the L4 stage of the subject nematodes. The experimental induced worm burdens of monepantel/abamectin combination treated animals were compared to those of an untreated control group and sheep treated animals with either monepantel or abamectin mono-formulations.
To this end the required larvae were generated first of all through culturing of characterized field isolates. Each animal then received the same dose of L3 (infective) larvae, and their larvae burdens were allowed time to mature. Once the larvae reached the L4 stage, the sheep were allocated to treatment groups 1, 2, 3 and 4 and treated as defined in the Table below:
Oral application using the above described formulations: […]
Two weeks after treatment (days 14-17) the sheep were slaughtered, their gastro-intestinal tracts recovered and processed for enumeration of total worm burdens. The primary measure of efficacy was calculated from the mean worm reduction in groups 2-4 when compared to the untreated control group 1. Efficacies were calculated using the formula
wherein C and T are the worm count means of the Control and Treated groups, respectively.
To this end, worm counts were log transformed as follows: […]

Compound | Efficacy [%] | Worm count [Geometric mean value] | log [Worm count] [geometric mean value] | Reduction worm count [factor] | Reduction log [worm count]
C[C@](C#N)(COc1cc(C#N)ccc1C(F)(F)F)NC(=O)c1ccc(SC(F)(F)F)cc1 [Monepantel, N-((1S)-1-cyano-2-(5-cyano-2-trifluoro-methylphenoxy)-1-methylethyl)-4-trifluoromethylsulfanylbenzamide] | 66.0% | 1453 | 3.165 | ~2.9 factor | −0.466
abamectin | 68.3% | 1352 | 3.134 | ~3.1 factor | −0.497
